According to patent US20100056524A1, “Compound” (priority 2008, published 2010):
Where two headings read alike, the source gives them in different places.

Assays:
CAMKKb = target: T1, CAMKKb (Homo sapiens, UniProt Q96RR4); test: CAMKKb protein kinase assay; format: biochemical; conditions: for remaining activity at 10 µM: 10 μM compound
T1 construct: All protein kinases were of human origin and encoded full length proteins, unless indicated otherwise; made in house
Source text: (§1) All protein kinases were of human origin and encoded full length proteins, unless indicated otherwise. They were either expressed as glutathione S-transferase (GST) fusion proteins in Escherichia Coli or as hexahistidine (His6)-tagged proteins in insect Sf21 cells. GST fusion proteins were purified by affinity chromatography on glutathione-Sepharose, and His6-tagged proteins on nickel/nitriloacetate-agarose. The procedures for expressing some of the protein kinases used herein have been detailed previously.^8,9 The following sections outline the DNA vectors synthesised and the procedures used to express and purifying protein kinases that have not been reported previously.
(§2) All assays (25.5 μl) were carried out at room temperature (21° C.) and were linear with respect to time and enzyme concentration under the conditions used. Assays were performed for 30 min using Multidrop Micro reagent dispensers (Thermo Electron Corporation, Waltham, Mass. 02454, USA) in a 96-well format. The concentration of magnesium acetate in the assays was 10 mM and the [γ-33P] ATP (800 cpm/pmol) was used at 5, 20 or 50 μM as indicated, in order to be at or below the Km for ATP for each enzyme. Protein kinases assayed at 5 μM ATP were: —ERK1, ERK8, PKBα, MARK3, Aurora C. Protein kinases assayed at 20 μM ATP were: —JNK1, PDK1, CHK1, CHK2, CDK2 and Aurora B. Protein kinases assayed at 50 μM ATP were: —MNK2, IKKepsilon and TBK1.
(§3) The assays were initiated with MgATP, stopped by addition of 5 μl of 0.5 M orthophosphoric acid and spotted on to P81 filterplates using a unifilter harvester (PerkinElmer, Boston, Mass. 02118, USA). The IC50 values of inhibitors were determined after carrying out assays at 10 different concentrations of each compound.
(§4) Unless stated otherwise, enzymes were diluted in 50 mM Tris/HCl pH 7.5, 0.1 mM EGTA, 1 mg/ml BSA, 0.1% (v/v) 2-mercaptoethanol and assayed in 50 mM Tris/HCl pH 7.5, 0.1 mM EGTA, 0.1% (v/v) 2-mercaptoethanol.

DYRK1A = target: T2, DYRK1A (Homo sapiens, UniProt Q13627); test: DYRK1A protein kinase assay; format: biochemical; conditions: for remaining activity at 10 µM: 10 μM compound
T2 construct: All protein kinases were of human origin and encoded full length proteins, unless indicated otherwise; made in house
Source text: as §1, §2, §3, §4

SRPK1 = target: T3, SRPK1 (Homo sapiens, UniProt Q96SB4); test: SRPK1 protein kinase assay; format: biochemical; conditions: for remaining activity at 10 µM: 10 μM compound
T3 construct: All protein kinases were of human origin and encoded full length proteins, unless indicated otherwise; made in house
Source text: as §1, §2, §3, §4

MST4 = target: T4, MST4 (Homo sapiens, UniProt Q9P289); test: MST4 protein kinase assay; format: biochemical; conditions: for remaining activity at 10 µM: 10 μM compound
T4 construct: All protein kinases were of human origin and encoded full length proteins, unless indicated otherwise; made in house
Source text: as §1, §2, §3, §4

PAK6 = target: T5, PAK6 (Homo sapiens, UniProt Q9NQU5); test: PAK6 protein kinase assay; format: biochemical; conditions: for remaining activity at 10 µM: 10 μM compound
T5 construct: All protein kinases were of human origin and encoded full length proteins, unless indicated otherwise; made in house
Source text: as §1, §2, §3, §4

Lck = target: T6, Lck (Homo sapiens, UniProt P06239); test: Lck protein kinase assay; format: biochemical; conditions: for remaining activity at 10 µM: 10 μM compound
T6 construct: All protein kinases were of human origin and encoded full length proteins, unless indicated otherwise; made in house
Source text: as §1, §2, §3, §4

ERK1 = target: T7, ERK1 (Homo sapiens, UniProt P27361); test: ERK1 protein kinase assay; format: biochemical; conditions: for remaining activity at 10 µM: 10 μM compound
T7 construct: All protein kinases were of human origin and encoded full length proteins, unless indicated otherwise; GST; made in house; host or cells: E. coli
Source text: as §1
The following proteins were expressed in E. coli: —CHK2[5-543], cyclin-dependent protein kinase 2 (CDK2), MAP kinase-interacting kinase 2 (MNK2), extra-cellular signal-regulated kinase 1 (ERK1).
(§5) In order to produce activated forms of Aurora B and Aurora C, insect Sf21 cells were incubated for 1 h with the protein phosphatase inhibitor okadaic acid (50 nM). JNK isoforms were activated with MKK4 and MKK7, MNK2 with p38α MAPkinase; PKBα, PKBβ, with PDK1, and ERK1 with MKK1. To activate CDK2, bacterial pellets expressing cyclin A2 and CDK2 were mixed together, lyse and purified on glutathione Sepharose. The GST-tags were removed by cleavage with PreScission protease and the CDK2-cyclin A2 complex purified by chromatography on SP-Sepharose. It was then activated with CAK1/CDK7 followed by chromatography on nickel-nitrilotriacetate agarose to remove CAK1/CDK7, which binds to this column by virtue of its C-terminal His6 tag. All the other protein kinases were active as expressed.
as §2, §3
ERK1 and ERK8 were both assayed against myelin basic protein (MBP, 0.33 mg/ml). MARK3 was assayed against the peptide […] (300 μM), MNK2 against the eIF4E protein (0.5 mg/ml). PKBβ was assayed against the peptide […] (30 μM). TBK1 were assayed against ([…]) (300 μM). The substrates used for other protein kinases were described previously.^8,9
as §4

PKBb = PKBb (Homo sapiens, UniProt P31751, S474D); test: PKBb protein kinase assay
PKBa = target: T8, PKBa (Homo sapiens, UniProt P31749, S473D); test: PKBa protein kinase assay; format: biochemical; conditions: for remaining activity at 10 µM: 10 μM compound
T8 construct: protein kinase Bα[118-480][S473D]; His6; made in house; host or cells: insect Sf21 cells
Source text: as §1
The following kinases were expressed in Sf21 cells: Aurora B and Aurora C, extra-cellular signal-regulated kinase 8 (ERK8), microtubule affinity regulating kinase 3 (MARK3), protein kinase Bα[118-480][S473D], protein kinase Bβ (PKBβ[120-481][S474D], 3-phosphoinositide-dependent protein kinase-1 [52-556]
as §5, §2, §3, §4

ROCK 2 = ROCK 2 protein kinase assay; format: biochemical, human; conditions: for residual kinase activity: ROCK 2
Source text: as §1, §2, §3, §4

CK1 = CK1 protein kinase assay; format: biochemical, human; conditions: for residual kinase activity: CK1
Source text: as §1, §2, §3, §4

IRR = IRR protein kinase assay; format: biochemical, human; conditions: for residual kinase activity: IRR
Source text: as §1, §2, §3, §4

[1] = read-out: residual kinase activity
[2] = read-out: residual kinase activity PKBb

T4 sequence (Q9P289 whole entry): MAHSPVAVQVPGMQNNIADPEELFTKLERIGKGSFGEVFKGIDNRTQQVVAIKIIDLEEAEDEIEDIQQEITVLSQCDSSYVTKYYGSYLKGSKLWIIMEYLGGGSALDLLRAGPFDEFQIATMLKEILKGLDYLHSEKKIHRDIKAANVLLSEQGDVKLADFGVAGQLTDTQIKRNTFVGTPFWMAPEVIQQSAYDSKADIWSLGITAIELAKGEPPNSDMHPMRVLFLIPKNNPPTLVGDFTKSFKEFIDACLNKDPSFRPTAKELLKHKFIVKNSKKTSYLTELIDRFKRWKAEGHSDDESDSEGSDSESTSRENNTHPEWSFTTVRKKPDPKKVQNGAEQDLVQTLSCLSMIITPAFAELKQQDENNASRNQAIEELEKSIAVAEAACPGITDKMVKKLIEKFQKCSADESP
T8 sequence (P31749 118-480 S473D): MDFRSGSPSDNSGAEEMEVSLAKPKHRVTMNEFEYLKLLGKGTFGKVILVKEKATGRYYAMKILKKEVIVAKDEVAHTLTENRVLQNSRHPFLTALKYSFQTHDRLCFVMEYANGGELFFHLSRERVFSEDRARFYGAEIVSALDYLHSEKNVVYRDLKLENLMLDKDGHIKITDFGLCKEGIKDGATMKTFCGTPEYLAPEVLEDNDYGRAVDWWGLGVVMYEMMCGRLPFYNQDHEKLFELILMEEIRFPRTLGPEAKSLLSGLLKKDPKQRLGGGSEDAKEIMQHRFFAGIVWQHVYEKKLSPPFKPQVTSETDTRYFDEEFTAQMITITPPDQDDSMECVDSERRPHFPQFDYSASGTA
T1 sequence (Q96RR4 whole entry): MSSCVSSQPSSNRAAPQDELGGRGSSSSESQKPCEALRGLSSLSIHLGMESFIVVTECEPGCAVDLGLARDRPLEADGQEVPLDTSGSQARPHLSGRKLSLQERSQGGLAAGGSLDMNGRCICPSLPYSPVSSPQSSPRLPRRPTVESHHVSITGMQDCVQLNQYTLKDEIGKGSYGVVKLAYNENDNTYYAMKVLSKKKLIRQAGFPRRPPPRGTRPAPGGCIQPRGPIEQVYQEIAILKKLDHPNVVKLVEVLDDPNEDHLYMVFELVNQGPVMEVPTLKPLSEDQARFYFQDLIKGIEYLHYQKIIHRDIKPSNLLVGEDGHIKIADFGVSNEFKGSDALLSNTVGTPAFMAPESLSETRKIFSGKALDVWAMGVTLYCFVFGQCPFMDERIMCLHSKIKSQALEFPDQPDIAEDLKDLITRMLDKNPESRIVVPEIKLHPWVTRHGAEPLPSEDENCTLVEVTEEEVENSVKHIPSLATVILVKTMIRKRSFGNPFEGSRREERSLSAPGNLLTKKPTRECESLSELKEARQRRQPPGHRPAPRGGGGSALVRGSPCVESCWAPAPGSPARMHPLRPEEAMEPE
T7 sequence (P27361 whole entry): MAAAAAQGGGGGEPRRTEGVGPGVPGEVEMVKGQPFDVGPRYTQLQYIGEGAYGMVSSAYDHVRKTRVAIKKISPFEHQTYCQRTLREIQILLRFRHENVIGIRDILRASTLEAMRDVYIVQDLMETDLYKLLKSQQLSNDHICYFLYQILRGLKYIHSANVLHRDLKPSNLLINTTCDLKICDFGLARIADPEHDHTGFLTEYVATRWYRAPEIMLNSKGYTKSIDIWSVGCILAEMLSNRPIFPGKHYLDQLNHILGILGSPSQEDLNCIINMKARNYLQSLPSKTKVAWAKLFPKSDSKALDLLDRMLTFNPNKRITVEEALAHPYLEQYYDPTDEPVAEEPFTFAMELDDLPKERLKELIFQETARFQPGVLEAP
T6 sequence (P06239 whole entry): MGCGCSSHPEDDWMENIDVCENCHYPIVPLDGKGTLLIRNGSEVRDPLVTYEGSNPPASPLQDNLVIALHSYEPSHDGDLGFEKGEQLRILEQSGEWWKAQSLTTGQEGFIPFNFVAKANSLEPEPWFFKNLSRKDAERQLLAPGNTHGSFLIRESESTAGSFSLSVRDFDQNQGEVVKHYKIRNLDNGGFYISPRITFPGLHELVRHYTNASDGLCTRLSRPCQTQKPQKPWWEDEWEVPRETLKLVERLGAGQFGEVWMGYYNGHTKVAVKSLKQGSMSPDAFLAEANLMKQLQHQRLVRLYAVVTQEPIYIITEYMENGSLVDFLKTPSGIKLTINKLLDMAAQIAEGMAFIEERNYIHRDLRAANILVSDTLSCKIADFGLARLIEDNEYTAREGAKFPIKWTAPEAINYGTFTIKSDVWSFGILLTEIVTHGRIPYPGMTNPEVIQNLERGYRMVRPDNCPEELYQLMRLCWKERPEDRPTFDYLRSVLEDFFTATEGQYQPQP
Sequence of PKBb (P31751 120-481 S474D): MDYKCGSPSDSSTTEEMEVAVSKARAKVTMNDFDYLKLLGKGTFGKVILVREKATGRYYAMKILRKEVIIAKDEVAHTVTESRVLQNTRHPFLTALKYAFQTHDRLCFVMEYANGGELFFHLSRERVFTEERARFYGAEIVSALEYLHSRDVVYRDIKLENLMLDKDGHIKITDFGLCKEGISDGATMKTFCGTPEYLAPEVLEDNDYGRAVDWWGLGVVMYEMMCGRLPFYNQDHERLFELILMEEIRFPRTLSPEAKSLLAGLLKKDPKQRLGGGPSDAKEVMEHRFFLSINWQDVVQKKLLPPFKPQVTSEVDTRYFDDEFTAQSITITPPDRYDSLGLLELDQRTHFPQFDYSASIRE
T5 sequence (Q9NQU5 whole entry): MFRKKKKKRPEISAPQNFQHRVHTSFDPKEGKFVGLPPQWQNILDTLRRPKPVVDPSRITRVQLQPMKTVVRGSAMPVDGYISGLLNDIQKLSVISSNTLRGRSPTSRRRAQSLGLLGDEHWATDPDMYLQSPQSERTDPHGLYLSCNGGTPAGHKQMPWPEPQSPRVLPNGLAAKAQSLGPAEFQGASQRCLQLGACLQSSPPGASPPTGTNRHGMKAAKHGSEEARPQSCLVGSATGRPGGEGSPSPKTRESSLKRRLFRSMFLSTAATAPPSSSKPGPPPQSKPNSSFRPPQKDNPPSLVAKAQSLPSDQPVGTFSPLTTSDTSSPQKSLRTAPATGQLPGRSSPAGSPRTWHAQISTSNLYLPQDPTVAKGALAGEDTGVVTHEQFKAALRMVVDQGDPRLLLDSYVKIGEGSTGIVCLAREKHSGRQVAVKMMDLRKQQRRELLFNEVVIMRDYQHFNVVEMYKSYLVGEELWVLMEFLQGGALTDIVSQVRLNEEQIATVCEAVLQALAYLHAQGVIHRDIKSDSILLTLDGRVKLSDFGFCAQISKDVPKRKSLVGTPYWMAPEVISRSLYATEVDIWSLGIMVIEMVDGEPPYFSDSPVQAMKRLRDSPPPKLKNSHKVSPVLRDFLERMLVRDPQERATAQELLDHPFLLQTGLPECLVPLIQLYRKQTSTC
T3 sequence (Q96SB4 whole entry): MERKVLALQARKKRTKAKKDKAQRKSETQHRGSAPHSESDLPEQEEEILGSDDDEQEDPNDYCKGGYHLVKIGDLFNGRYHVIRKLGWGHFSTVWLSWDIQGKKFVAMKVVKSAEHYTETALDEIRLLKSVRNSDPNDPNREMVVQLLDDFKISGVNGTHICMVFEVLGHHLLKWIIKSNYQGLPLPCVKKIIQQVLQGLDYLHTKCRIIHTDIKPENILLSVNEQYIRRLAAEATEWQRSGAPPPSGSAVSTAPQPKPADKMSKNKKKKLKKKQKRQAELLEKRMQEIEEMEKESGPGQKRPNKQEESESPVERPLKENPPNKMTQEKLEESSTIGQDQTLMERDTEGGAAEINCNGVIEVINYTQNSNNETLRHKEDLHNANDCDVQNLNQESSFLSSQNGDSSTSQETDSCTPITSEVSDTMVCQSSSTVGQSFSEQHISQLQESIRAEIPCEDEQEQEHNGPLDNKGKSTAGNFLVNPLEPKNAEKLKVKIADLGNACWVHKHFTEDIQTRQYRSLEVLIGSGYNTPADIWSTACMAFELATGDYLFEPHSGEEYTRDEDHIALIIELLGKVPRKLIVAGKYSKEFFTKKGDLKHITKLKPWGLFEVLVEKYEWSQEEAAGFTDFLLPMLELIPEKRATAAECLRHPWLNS

O=C(NCCCNc1nc(Nc2cccc(F)c2)ncc1C1CC1)C1CCC1 [Example 23, Cyclobutanecarboxylic acid {3-[5-cyclopropyl-2-(3-fluoro-phenylamino)-pyrimidin-4-ylamino]-propyl}-amide]
remaining activity at 10 µM (CAMKKb; read-out: residual kinase activity CAMKKb): 8% | residual kinase activity CAMKKb (CAMKKb; 1 μm compound): 43% | remaining activity at 1 µM (CAMKKb; CAMKKb, 1 μM compound, read-out: residual kinase activity): 43% | remaining activity at 10 µM (CAMKKb; CAMKKb, read-out: residual kinase activity): 8% | remaining activity at 10 µM (DYRK1A; read-out: residual kinase activity DYRK1A): 56% | residual kinase activity DYRK1A (DYRK1A; 1 μm compound): 78% | remaining activity at 1 µM (DYRK1A; DYRK1A, 1 μM compound, read-out: residual kinase activity): 78% | remaining activity at 10 µM (DYRK1A; DYRK1A, read-out: residual kinase activity): 56% | remaining activity at 10 µM (SRPK1; read-out: residual kinase activity SRPK1): 40% | residual kinase activity SRPK1 (SRPK1; 1 μm compound): 75% | remaining activity at 1 µM (SRPK1; SRPK1, 1 μM compound, read-out: residual kinase activity): 75% | remaining activity at 10 µM (SRPK1; SRPK1, read-out: residual kinase activity): 40% | remaining activity at 10 µM (MST4; read-out: residual kinase activity MST4): 56% | residual kinase activity MST4 (MST4; 1 μm compound): 94% | remaining activity at 1 µM (MST4; MST4, 1 μM compound, read-out: residual kinase activity): 94% | remaining activity at 10 µM (MST4; MST4, read-out: residual kinase activity): 56% | remaining activity at 10 µM (PAK6; read-out: residual kinase activity PAK6): 50% | residual kinase activity PAK6 (PAK6; 1 μm compound): 82% | remaining activity at 1 µM (PAK6; PAK6, 1 μM compound, read-out: residual kinase activity): 82% | remaining activity at 10 µM (PAK6; PAK6, read-out: residual kinase activity): 50% | remaining activity at 10 µM (Lck; read-out: residual kinase activity Lck): 37% | residual kinase activity Lck (Lck; 1 μm compound): 86% | remaining activity at 1 µM (Lck; Lck, 1 μM compound, read-out: residual kinase activity): 86% | remaining activity at 10 µM (Lck; Lck, read-out: residual kinase activity): 37% | remaining activity at 10 µM (ERK1; read-out: residual kinase activity ERK1): 75% | residual kinase activity ERK1 (ERK1; 1 μm compound): 88% | remaining activity at 1 µM (ERK1; ERK1, 1 μM compound, 5 μM ATP, read-out: residual kinase activity): 88% | remaining activity at 10 µM (ERK1; ERK1, 5 μM ATP, read-out: residual kinase activity): 75% | remaining activity at 1 µM (PKBb; [1]): 106% | remaining activity at 10 µM (PKBb; [1]): 114% | remaining activity at 1 µM (PKBb; [2]): 106% | remaining activity at 10 µM (PKBb; [2]): 114% | remaining activity at 10 µM (PKBa; read-out: residual kinase activity PKBa): 91% | remaining activity at 1 µM (PKBa; 1 μm compound, read-out: residual kinase activity PKBa): 100% | remaining activity at 1 µM (PKBa; PKBa, 1 μM compound, 5 μM ATP, read-out: residual kinase activity): 100% | remaining activity at 10 µM (PKBa; PKBa, 5 μM ATP, read-out: residual kinase activity): 91% | residual kinase activity ROCK 2 (ROCK 2; 10 μM compound): 40% | residual kinase activity ROCK 2 (ROCK 2; 1 μm compound): 77% | residual kinase activity (ROCK 2; 1 μM compound): 77% | residual kinase activity (ROCK 2; 10 μM compound): 40% | residual kinase activity CK1 (CK1; 10 μM compound): 64% | residual kinase activity CK1 (CK1; 1 μm compound): 93% | residual kinase activity (CK1; 1 μM compound): 93% | residual kinase activity (CK1; 10 μM compound): 64% | residual kinase activity IRR (IRR; 10 μM compound): 17% | residual kinase activity IRR (IRR; 1 μm compound): 44% | residual kinase activity (IRR; 1 μM compound): 44% | residual kinase activity (IRR; 10 μM compound): 17%
